# Reference: ChEMBL document CHEMBL3046310, “Synthesis and antimicrobial screening of novel series of imidazo-[1,2-a]pyridine derivatives” (2012)
# Assays:
# Type in all cases: functional
# Aspergillus niger = assay: Antimicrobial activity against Aspergillus niger MTCC 282 after 72 hr by serial broth dilution method; settings: MTCC 282, 72 h
# Candida albicans = assay: Antimicrobial activity against Candida albicans MTCC 227 after 72 hr by serial broth dilution method; settings: MTCC 227, 72 h
# Aspergillus clavatus = assay: Antimicrobial activity against Aspergillus clavatus MTCC 1323 after 72 hr by serial broth dilution method; settings: MTCC 1323, 72 h
# Staphylococcus aureus = assay: Antimicrobial activity against Staphylococcus aureus MTCC 96 after 24 hr by serial broth dilution method; settings: MTCC 96, 24 h
# Pseudomonas aeruginosa = assay: Antimicrobial activity against Pseudomonas aeruginosa MTCC 1688 after 24 hr by serial broth dilution method; settings: MTCC 1688, 24 h
# Escherichia coli = assay: Antimicrobial activity against Escherichia coli MTCC 443 after 24 hr by serial broth dilution method; settings: MTCC 443, 24 h
# Streptococcus pyogenes = assay: Antimicrobial activity against Streptococcus pyogenes MTCC 442 after 24 hr by serial broth dilution method; settings: MTCC 442, 24 h
MIC (Aspergillus niger) [µg/mL],MIC (Candida albicans) [µg/mL],MIC (Aspergillus clavatus) [µg/mL],MIC (Staphylococcus aureus) [µg/mL],MIC (Pseudomonas aeruginosa) [µg/mL],MIC (Escherichia coli) [µg/mL],MIC (Streptococcus pyogenes) [µg/mL],Compound
100,500,100,–,–,–,–,COC1=CC(=O)C[C@@H](C)[C@]12Oc1c(Cl)c(OC)cc(OC)c1C2=O [GRISEOFULVIN]
100,1000,25,250,500,500,25,Cc1ccn2c(CN(C)C)c(-c3cccc(Br)c3F)nc2c1
1000,1000,1000,500,500,500,500,Cc1ccn2c(CN(C)C)c(-c3ccccc3O)nc2c1
250,125,250,500,250,50,500,Cc1ccn2c(CN(C)C)c(-c3cccc(F)c3F)nc2c1
50,500,100,50,50,100,250,Cc1ccn2c(CN(C)C)c(-c3ccc(F)cc3F)nc2c1
500,500,500,500,250,500,250,Cc1ccn2c(CN(C)C)c(-c3cc([N+](=O)[O-])c(O)cc3O)nc2c1
1000,1000,1000,500,500,500,250,Cc1ccn2c(CN(C)C)c(-c3ccc(O)cc3O)nc2c1

# Continued, molecule first:
Compound,MIC (Aspergillus niger) [µg/mL],MIC (Candida albicans) [µg/mL],MIC (Aspergillus clavatus) [µg/mL],MIC (Staphylococcus aureus) [µg/mL],MIC (Pseudomonas aeruginosa) [µg/mL],MIC (Escherichia coli) [µg/mL],MIC (Streptococcus pyogenes) [µg/mL]
CC1(C)S[C@@H]2[C@H](NC(=O)[C@H](N)c3ccccc3)C(=O)N2[C@H]1C(=O)O [AMPICILLIN],–,–,–,250,100,100,100
Cc1ccn2c(CN(C)C)c(-c3ccc(F)c(Cl)c3)nc2c1,1000,250,1000,50,100,50,50
Cc1ccn2c(CN(C)C)c(-c3ccccc3Br)nc2c1,50,500,100,500,100,100,250
Cc1ccn2c(CN(C)C)c(-c3ccc([N+](=O)[O-])cc3Br)nc2c1,500,1000,500,500,100,100,100
Cc1ccn2c(CN(C)C)c(-c3ccc(O)c([N+](=O)[O-])c3)nc2c1,1000,1000,1000,500,250,500,1000
Cc1ccn2c(CN(C)C)c(-c3cccc(Cl)c3)nc2c1,100,250,100,100,50,100,500
Cc1ccn2c(CN(C)C)c(-c3c(F)cccc3F)nc2c1,100,1000,500,250,25,25,100
